Laboratory results reported in patent US9867833B2, “Serine/threonine kinase inhibitors” (GENENTECH, INC., priority 2013, dated 2018).

The molecules below were run against human ERK-2 (Mitogen Activated Kinase 1) (Homo sapiens (Human), UniProt P28482) (assay: ERK-2 Enzymatic Assay). Conditions: human ERK-2 enzyme 5 nM, 25 μM ATP, S/T17 peptide substrate; isomer = configuration of CR2R3.
Chain of human ERK-2 (Mitogen Activated Kinase 1) (P28482 8-360): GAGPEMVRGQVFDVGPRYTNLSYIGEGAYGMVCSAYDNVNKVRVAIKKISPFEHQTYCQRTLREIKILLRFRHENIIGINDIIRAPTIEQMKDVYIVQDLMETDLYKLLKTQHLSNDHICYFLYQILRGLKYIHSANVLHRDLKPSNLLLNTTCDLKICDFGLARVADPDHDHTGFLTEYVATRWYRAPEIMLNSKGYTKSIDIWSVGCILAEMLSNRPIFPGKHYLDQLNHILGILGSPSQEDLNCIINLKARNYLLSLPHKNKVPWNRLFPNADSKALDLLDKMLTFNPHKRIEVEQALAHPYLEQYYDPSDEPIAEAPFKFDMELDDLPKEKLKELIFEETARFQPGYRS
Format: biochemical
Summary of the method: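 Recombinant human ERK-2 (aa 8-360, N-terminal 6-His, E. coli) with 3-fold serially diluted compound. Per-well rates from linear fits converted to percent of control; IC50 by four-parameter fit.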
For CC(C)C[C@H]1CN(C)c2cc(-c3ccnc(Nc4ccnn4C)c3)cc3nnc1n23 [(S) I-20, 4-(3-isobutyl-5-methyl-4,5-dihydro-3H-1,2,2a^1,5-tetraazaacenaphthylen-7-yl)-N-(1-methyl-1H-pyrazol-5-yl)pyridin-2-amine], the IC50 was 0.316 nM.
Cn1nccc1Nc1nccc(-c2cc3n4c(nnc4c2)[C@@H](Cc2ccc(F)cc2)CN3)n1 [(S) I-21, 4-(3-(4-fluorobenzyl)-4,5-dihydro-3H-1,2,2a^1,5-tetraazaacenaphthylen-7-yl)-N-(1-methyl-1H-pyrazol-5-yl)pyrimidin-2-amine] showed an IC50 of under 0.02 nM.
Work on CN1C(=O)C[C@H](Cc2ccc(Cl)cc2)c2nnc3cc(-c4ccnc(Nc5ccnn5C)n4)cc1n23 [(S) I-22, 9-(4-chlorobenzyl)-6-methyl-4-(2-((1-methyl-1H-pyrazol-5-yl)amino)pyrimidin-4-yl)-8,9-dihydro-1,2,2a^1,6-tetraazabenzo[cd]azulen-7(6H)-one] yielded an IC50 of under 0.02 nM.
COc1ccc(C[C@H]2CNc3cc(-c4ccnc(Nc5ccnn5C)n4)cc4nnc2n34)cn1 [(S) I-24, 4-(3-((6-methoxypyridin-3-yl)methyl)-4,5-dihydro-3H-1,2,2a^1,5-tetraazaacenaphthylen-7-yl)-N-(1-methyl-1H-pyrazol-5-yl)pyrimidin-2-amine] showed an IC50 of under 0.02 nM.
With Cn1nccc1Nc1nccc(-c2cc3n4c(nnc4c2)[C@@H](COCc2ccccc2)CCO3)n1 [(S) I-29, 4-(9-((benzyloxy)methyl)-8,9-dihydro-7H-6-oxa-1,2,2a^1-triazabenzo[cd]azulen-4-yl)-N-(1-methyl-1H-pyrazol-5-yl)pyrimidin-2-amine] the IC50 was under 0.02 nM.
Cn1nccc1Nc1cc(-c2cc3n4c(nnc4c2)[C@@H](Cc2ccccc2Cl)CCO3)ccn1 [(S) I-30, 4-(9-(2-chlorobenzyl)-8,9-dihydro-7H-6-oxa-1,2,2a^1-triazabenzo[cd]azulen-4-yl)-N-(1-methyl-1H-pyrazol-5-yl)pyridin-2-amine] gave an IC50 of under 0.02 nM.
CN1C[C@H](Cc2ccc(F)cc2)c2nnc3cc(-c4ccnc(Nc5ccnn5C)n4)cc1n23 [(S) I-31, 4-(3-(4-fluorobenzyl)-5-methyl-4,5-dihydro-3H-1,2,2a^1,5-tetraazaacenaphthylen-7-yl)-N-(1-methyl-1H-pyrazol-5-yl)pyrimidin-2-amine] showed an IC50 of under 0.02 nM.
With Cn1nccc1Nc1nccc(-c2cc3n4c(nnc4c2)[C@@H](Cc2ccc(Cl)cc2)CCO3)n1 [(S) I-36, 4-(9-(4-chlorobenzyl)-8,9-dihydro-7H-6-oxa-1,2,2a^1-triazabenzo[cd]azulen-4-yl)-N-(1-methyl-1H-pyrazol-5-yl)pyrimidin-2-amine] the IC50 was under 0.02 nM.
Molecule Cn1nccc1Nc1cc(-c2cc3n4c(nnc4c2)[C@H](Cc2ccccc2)CO3)ccn1 [(S) I-38, 4-(3-benzyl-3,4-dihydro-5-oxa-1,2,2a^1-triazaacenaphthylen-7-yl)-N-(1-methyl-1H-pyrazol-5-yl)pyridin-2-amine] has an IC50 of 4.34 nM.
CN1C(=O)C[C@H](Cc2ccc(Cl)cc2)c2nnc3cc(-c4ccnc(Nc5ccnn5C)c4)cc1n23 [(S) I-40, 9-(4-chlorobenzyl)-6-methyl-4-(2-((1-methyl-1H-pyrazol-5-yl)amino)pyridin-4-yl)-8,9-dihydro-1,2,2a^1,6-tetraazabenzo[cd]azulen-7(6H)-one] showed an IC50 of under 0.02 nM.
In the case of Cn1nccc1Nc1nccc(-c2cc3n4c(nnc4c2)[C@H](Cn2cc(Cl)cn2)CCO3)n1 [(S) I-42, (S)-4-(9-((4-Chloro-1H-pyrazol-1-yl)methyl)-8,9-dihydro-7H-6-oxa-1,2,2a^1-triazabenzo[cd]azulen-4-yl)-N-(1-methyl-1H-pyrazol-5-yl)pyrimidin-2-amine], the IC50 is reported as 0.131 nM.
COc1ncccc1C[C@H]1CN(C)c2cc(-c3ccnc(Nc4ccnn4C)n3)cc3nnc1n23 [(S) I-43, 4-(3-((2-methoxypyridin-3-yl)methyl)-5-methyl-4,5-dihydro-3H-1,2,2a^1,5-tetraazaacenaphthylen-7-yl)-N-(1-methyl-1H-pyrazol-5-yl)pyrimidin-2-amine] showed an IC50 of 1.33 nM.
In the case of Cn1nccc1Nc1nccc(-c2cc3n4c(nnc4c2)[C@H](Cc2ccc(F)cc2)CO3)n1 [(S) I-44, 4-(3-(4-fluorobenzyl)-3,4-dihydro-5-oxa-1,2,2a^1-triazaacenaphthylen-7-yl)-N-(1-methyl-1H-pyrazol-5-yl)pyrimidin-2-amine], the IC50 is reported as 5 nM.
For CC(C)C[C@@H]1COc2cc(-c3ccnc(Nc4ccnn4C)n3)cc3nnc1n23 [(S) I-45, 4-(3-isobutyl-3,4-dihydro-5-oxa-1,2,2a^1-triazaacenaphthylen-7-yl)-N-(1-methyl-1H-pyrazol-5-yl)pyrimidin-2-amine], the IC50 was 20.9 nM.
COc1ccc(C[C@@H]2COc3cc(-c4ccnc(Nc5ccnn5C)n4)cc4nnc2n34)cc1F [(S) I-46, 4-(3-(3-fluoro-4-methoxybenzyl)-3,4-dihydro-5-oxa-1,2,2a^1-triazaacenaphthylen-7-yl)-N-(1-methyl-1H-pyrazol-5-yl)pyrimidin-2-amine] showed an IC50 of 2.47 nM.
Cn1nccc1Nc1cc(-c2cc3n4c(nnc4c2)[C@H](Cn2cc(Cl)cn2)CCO3)ccn1 [(S) I-47, 4-(9-((4-chloro-1H-pyrazol-1-yl)methyl)-8,9-dihydro-7H-6-oxa-1,2,2a^1-triazabenzo[cd]azulen-4-yl)-N-(1-methyl-1H-pyrazol-5-yl)pyridin-2-amine] was tested, and the IC50 was 0.465 nM.
Cn1nccc1Nc1cc(-c2cc3n4c(nnc4c2)[C@H](Cc2ccc(Cl)cc2)CO3)ccn1 [(S) I-48, 4-(3-(4-chlorobenzyl)-3,4-dihydro-5-oxa-1,2,2a^1-triazaacenaphthylen-7-yl)-N-(1-methyl-1H-pyrazol-5-yl)pyridin-2-amine] gave an IC50 of 12.3 nM.
In the case of COc1ccc(C[C@@H]2COc3cc(-c4ccnc(Nc5ccnn5C)n4)cc4nnc2n34)cc1 [(S) I-50, 4-(3-(4-methoxybenzyl)-3,4-dihydro-5-oxa-1,2,2a^1-triazaacenaphthylen-7-yl)-N-(1-methyl-1H-pyrazol-5-yl)pyrimidin-2-amine], the IC50 is reported as 7.12 nM.
Cn1nccc1Nc1cc(-c2cc3n4c(nnc4c2)[C@H](Cc2ccc(F)c(F)c2)CO3)ccn1 [(S) I-54, 4-(3-(3,4-difluorobenzyl)-3,4-dihydro-5-oxa-1,2,2a^1-triazaacenaphthylen-7-yl)-N-(1-methyl-1H-pyrazol-5-yl)pyridin-2-amine] gave an IC50 of 22.3 nM.
In the case of Cn1nccc1Nc1nccc(-c2cc3n4c(nnc4c2)[C@H](Cn2cc(C4CC4)cn2)CCO3)n1 [(S) I-56, 4-(9-((4-cyclopropyl-1H-pyrazol-1-yl)methyl)-8,9-dihydro-7H-6-oxa-1,2,2a^1-triazabenzo[cd]azulen-4-yl)-N-(1-methyl-1H-pyrazol-5-yl)pyrimidin-2-amine], the IC50 is reported as 1.39 nM.
With Cn1nccc1Nc1nccc(-c2cc3n4c(nnc4c2)[C@@H](Cc2ccc(F)cc2)CCO3)n1 [(S) I-58, 4-(9-(4-fluorobenzyl)-8,9-dihydro-7H-6-oxa-1,2,2a^1-triazabenzo[cd]azulen-4-yl)-N-(1-methyl-1H-pyrazol-5-yl)pyrimidin-2-amine] the IC50 was 0.311 nM.
In the case of COc1ccc(C[C@H]2CC(=O)N(C)c3cc(-c4ccnc(Nc5ccnn5C)n4)cc4nnc2n34)cc1 [(S) I-62, 9-(4-methoxybenzyl)-6-methyl-4-(2-((1-methyl-1H-pyrazol-5-yl)amino)pyrimidin-4-yl)-8,9-dihydro-1,2,2a^1,6-tetraazabenzo[cd]azulen-7(6H)-one], the IC50 is reported as 44 nM.
CCC[C@H]1CC(=O)N(C)c2cc(-c3ccnc(Nc4ccnn4C)n3)cc3nnc1n23 [(S) I-64, 6-methyl-4-(2-((1-methyl-1H-pyrazol-5-yl)amino)pyrimidin-4-yl)-9-propyl-8,9-dihydro-1,2,2a^1,6-tetraazabenzo[cd]azulen-7(6H)-one] was tested, and the IC50 was 0.149 nM.
In the case of CN1C(=O)C[C@@H](C2CC2)c2nnc3cc(-c4ccnc(Nc5ccnn5C)n4)cc1n23 [(S) I-65, 9-cyclopropyl-6-methyl-4-(2-((1-methyl-1H-pyrazol-5-yl)amino)pyrimidin-4-yl)-8,9-dihydro-1,2,2a^1,6-tetraazabenzo[cd]azulen-7(6H)-one], the IC50 is reported as 119 nM.
Cn1nccc1Nc1nccc(-c2cc3n4c(nnc4c2)[C@@H](Oc2ccc(F)cc2)CCO3)n1 [(S) I-66, 4-(9-(4-fluorophenoxy)-8,9-dihydro-7H-6-oxa-1,2,2a^1-triazabenzo[cd]azulen-4-yl)-N-(1-methyl-1H-pyrazol-5-yl)pyrimidin-2-amine] was tested, and the IC50 was 0.02 nM.
CN1C(=O)C[C@@H](CC(F)(F)F)c2nnc3cc(-c4ccnc(Nc5ccnn5C)n4)cc1n23 [(S) I-71, 6-methyl-4-(2-((1-methyl-1H-pyrazol-5-yl)amino)pyrimidin-4-yl)-9-(2,2,2-trifluoroethyl)-8,9-dihydro-1,2,2a^1,6-tetraazabenzo[cd]azulen-7(6H)-one] gave an IC50 of 189 nM.
For COc1ccc(C[C@H]2CC(=O)N(C)c3cc(-c4ccnc(Nc5ccnn5C)c4)cc4nnc2n34)c(F)c1 [(S) I-74, 9-(2-fluoro-4-methoxybenzyl)-6-methyl-4-(2-((1-methyl-1H-pyrazol-5-yl)amino)pyridin-4-yl)-8,9-dihydro-1,2,2a^1,6-tetraazabenzo[cd]azulen-7(6H)-one], the IC50 was 2.85 nM.
For CC(C)C[C@H]1CC(=O)N(C)c2cc(-c3ccnc(Nc4ccnn4C)c3)cc3nnc1n23 [(S) I-75, 9-isobutyl-6-methyl-4-(2-((1-methyl-1H-pyrazol-5-yl)amino)pyridin-4-yl)-8,9-dihydro-1,2,2a^1,6-tetraazabenzo[cd]azulen-7(6H)-one], the IC50 was 718 nM.
For Cn1nccc1Nc1nccc(-c2cc3n4c(nnc4c2)[C@@H](Oc2cncc(Cl)c2)CCO3)n1 [(S) I-77, 4-(9-((5-chloropyridin-3-yl)oxy)-8,9-dihydro-7H-6-oxa-1,2,2a^1-triazabenzo[cd]azulen-4-yl)-N-(1-methyl-1H-pyrazol-5-yl)pyrimidin-2-amine], the IC50 was under 0.02 nM.
For Cn1nccc1Nc1cc(-c2cc3n4c(nnc4c2)[C@@H](Oc2cncc(Cl)c2)CCO3)ccn1 [(S) I-78, 4-(9-((5-chloropyridin-3-yl)oxy)-8,9-dihydro-7H-6-oxa-1,2,2a^1-triazabenzo[cd]azulen-4-yl)-N-(1-methyl-1H-pyrazol-5-yl)pyridin-2-amine], the IC50 was under 0.02 nM.
